According to paper PMC3583578 (Oncology Reports, 2012):

Columns and labels:
[1] = test system: TNFα-induced NF-κB activation; experiment: Luciferase-based in cellulo NF-κB reporter assay; assay type: cell-based, human; conditions: K562 cells after transfection
[2] = test system: 26S protease (chymotrypsin, trypsin- and caspase-like activities); conditions: three proteolytic activities, dose-dependent; cited from earlier work

## COc1cccc(/C=C/C(=O)c2ccccc2O)c1OC [Chalcone 16, 2,3-Dimethoxy-2′-hydroxychalcone]
[1]
  Cytotoxicity at concentrations which inhibited NF-κB activation (in words): cytotoxic

## O=C(/C=C/c1ccccc1)c1ccc(O)cc1 [Chalcone 7, 4′-Hydroxychalcone]
[2]
  26S protease inhibition activity (in words): inhibition activity
